Assays:
Assay type in all cases: functional, cell-based
[1] = test system: FHC; assay: In vitro inhibition of FHC normal human colon cell proliferation
[2] = test system: HT-29; assay: In vitro inhibition of the HT-29 transformed human colon cell proliferation
[3] = test system: MDA-MB-231; assay: In vitro inhibition of estrogen receptor negative MDA-MB-231 human breast cancer cell proliferation
[4] = test system: MCF7; assay: In vitro inhibition of estrogen receptor positive MCF-7 human breast cancer cell proliferation
[5] = test system: HL-60; assay: In vitro inhibition of HL-60 human promyelocytic leukemia cell proliferation

SMILES: CCCCCCCCCCCCCCCCCCOCC(CCP(=O)([O-])OCC[N+](C)(C)C)n1ccnc1 (configuration not stated)
- IC50 [1]: 5000 nM
- IC50 [2]: 2000 nM
- IC50 [3]: 4500 nM
- IC50 [4]: 3000 nM
- IC50 [5]: 2000 nM

SMILES: CCCCCCCCCCCCCCCCCCOCC(CCP(=O)([O-])OCC[N+](C)(C)C)n1cncn1 (configuration not stated)
- IC50 [3]: 6000 nM
- IC50 [4]: 3000 nM
- IC50 [5]: 3000 nM

SMILES: CCCCCCCCCCCCCCCCCCOCC(COP(=O)([O-])OCC[N+](C)(C)C)OC (configuration not stated) [EDELFOSINE]
- IC50 [1]: 45000 nM
- IC50 [2]: 2000 nM
- IC50 [3]: 5000 nM
- IC50 [5]: 2000 nM
